Some results are limits rather than exact numbers.

For the compound `CC1CCN(Cc2nc3sc4c(c3c(=O)[nH]2)CCC4)CC1`, the melting point – broadly, the temperature, or range, at which the solid turns liquid – was 256 to 258 °C.

The compound `Nc1snc2ccc([N+](=O)[O-])cc12` had a melting point of 198 to 200 °C.

The compound `CCc1nc(N)nc(SC)n1` gave a melting point of 143 to 145 °C.

The compound `Nc1cc(-c2ccc(Cl)cc2)nn1-c1ccccc1` displayed a melting point of 191 to 193 °C.

Consider `NN1C(=O)NC2(CCCCC2)C1=O`, for which the melting point was 164 to 166 °C.

As to `O=c1c(Cl)c(Cl)cnn1-c1ccc(Cl)cc1`, the melting point lay within 186 to 188 °C.

Regarding `CC1CCN(Cc2csc(N)n2)CC1`, the melting point was in the range of 145 to 147 °C.

Compound `c1cc(-c2ncc[nH]2)ccn1` displayed a melting point of 208 to 210 °C.

On to `Clc1ccc(N2CCNCC2)nc1`, for which the melting point fell in the range of 64 to 66 °C.

Compound `CC(c1nc(-c2ccc(Cl)cc2)no1)N1CCNCC1` (stereo unspecified) showed a melting point of 78 to 80 °C.

On to `O=C(O)CSCC(=O)c1ccc(Cl)cc1`, for which the melting point fell in the range of 81 to 83 °C.

As to `O=C1Nc2ccccc2C1O` (stereo unspecified), the melting point lay within 161 to 163 °C.

In turn, `c1ccc2sc(NC3CCCCC3)nc2c1` registered a melting point of 100 to 102 °C.

In the case of `Nc1ccc(Oc2ccncc2)cc1`, the melting point was 160 to 162 °C.

Turning to `Cc1cc(Br)ccc1NC(=O)CCN`, the melting point was 77 to 79 °C.

In turn, `Cc1ccc(C2CS(=O)(=O)CCN2)o1` (stereo unspecified) came in with a melting point of 111 to 113 °C.

In turn, `Nc1ccc(F)c(NS(=O)(=O)c2cccs2)c1` registered a melting point of 179 to 181 °C.

Compound `NC(=S)C1CCCC1` came in with a melting point of 84 to 86 °C.

For the compound `NC(=S)Cc1ccc(Br)cc1`, the melting point fell in the range of 146 to 148 °C.

Compound `CN(C)C(=O)c1ccnc(N)c1` registered a melting point of 196 to 198 °C.

Take `NC(=NO)c1cccc(NC(=O)CN2CCOCC2)c1`: the melting point fell in the range of 99 to 101 °C.

Take `Cc1cc(C(=O)O)cc([N+](=O)[O-])c1`: the melting point was 169 to 171 °C.

The compound `COc1ccc(NS(=O)(=O)c2ccc(C(C)=O)cc2)cc1` came in with a melting point of 121 to 123 °C.

In turn, `CC(C)C(Br)C(=O)NCc1ccco1` (stereo unspecified) had a melting point of 91 to 93 °C.

As to `O=S(=O)(c1ccc(CCl)o1)N1CCCC1`, the melting point lay in the range of 81 to 83 °C.

Consider `Cn1ccc(C(=O)CCl)c1`, for which the melting point lay in the range of 49 to 51 °C.

On to `COC(=O)CC1CCCCC1=NO` (stereo unspecified), for which the melting point lay within 74 to 76 °C.

`O=C(O)c1cc(-c2ccccc2Cl)[nH]n1` came in with a melting point of 225 to 227 °C.

In the case of `CCC(Br)C(N)=O` (stereo unspecified), the melting point lay in the range of 108 to 110 °C.

Regarding `CNC(=O)NC(=O)CCCCl`, the melting point lay within 122 to 124 °C.

Turning to `O=C(O)c1cnn(-c2ccc(F)cc2)n1`, the melting point lay in the range of 214 to 216 °C.

In turn, `O=C(O)C1(S(=O)(=O)c2ccc(Br)cc2)CCCC1` came in with a melting point of 138 to 140 °C.

With `CN(C)S(=O)(=O)c1ccc(N)cc1`, the melting point lay within 119 to 162 °C.

Compound `ON=C1CCCOc2ccc(Br)cc21` had a melting point of 107 to 109 °C.

With `NC(=O)c1ccc(I)cc1`, the melting point lay within 216 to 218 °C.

Turning to `CC(C)(C)c1ccc(Cn2nccc2N)cc1`, the melting point was < 17 °C.

`NC(=O)C1CCOC1` (stereo unspecified) came in with a melting point of 109 to 111 °C.

In the case of `CC(C)Cc1ccc(CCC(=O)O)cc1`, the melting point is 64 to 66 °C.

Regarding `CC(C)(C)OC(=O)NCC1CNc2ccccc21` (stereo unspecified), the melting point fell in the range of 80 to 82 °C.

Compound `O=C(O)c1cc(-c2ccc(Cl)s2)on1` registered a melting point of 169 to 171 °C.

In turn, `CC(=CC(=O)O)C(C)(C)C` yielded a melting point of 83 to 85 °C.

In the case of `COc1ccc(OC)c(C(C)NC(=O)C(C)Cl)c1` (stereo unspecified), the melting point was in the range of 96 to 98 °C.

The compound `O=C(CCCl)N1CCOCC1` registered a melting point of 46 to 48 °C.

`Cc1nn(Cc2ccc(Cl)cc2)c(C)c1C(=O)O` returned a melting point of 188 to 190 °C.

`Cc1cc(C)c(N=C=S)c(Cl)c1` registered a melting point of 55 to 57 °C.

Take `O=[N+]([O-])c1ccc(-c2cn[nH]c2)cc1`: the melting point lay within 205 to 207 °C.

`CC(=O)c1cc2cc(C)c(C)cc2o1` yielded a melting point of 89 to 91 °C.

`O[C@@H]1CCCOc2ccccc21` gave a melting point of 89 to 91 °C.

Regarding `Nc1cccc(-c2nc(C3CC3)n[nH]2)c1`, the melting point is 154 to 156 °C.

For the compound `COc1ccccc1-c1cc(N)n(-c2ccc(C)cc2)n1`, the melting point lay in the range of 104 to 106 °C.

In turn, `CC(=O)Nc1cccc(C(C)O)c1` (stereo unspecified) yielded a melting point of 103 to 105 °C.

`N#Cc1ccc(F)c(Cn2ccnc2)c1` had a melting point of 91 to 93 °C.

Compound `Nc1ccc2ccoc2c1` gave a melting point of 51 to 53 °C.

Take `N#Cc1cc2c([nH]c1=O)CCN(Cc1ccccc1)C2`: the melting point fell in the range of 218 to 220 °C.

`NC(=O)CCc1ccc(F)c(F)c1`: the melting point lay in the range of 99 to 101 °C.

`Nc1ccc(Cl)c(S(=O)(=O)N2CCOCC2)c1` came in with a melting point of 157 to 159 °C.

Compound `NCC(=O)N1CCN(c2ccc(Cl)cc2)CC1` had a melting point of 87 to 89 °C.

Regarding `NNC(=O)Cc1cc[nH]n1`, the melting point fell in the range of 180 to 182 °C.

On to `Cc1ccc2c(CCl)cc(=O)oc2c1C`, for which the melting point is 174 to 176 °C.

As for `O=C(O)Cc1ccc(-n2cccc2)cc1`, the melting point lay within 171 to 173 °C.

`Nc1ccc2oc(C(F)(F)F)nc2c1`: the melting point lay in the range of 120 to 122 °C.

With `O=C(O)C=CC1=CCCC1`, the melting point is 147 to 149 °C.

For the compound `CCc1cnc(N)s1`, the melting point fell in the range of 54 to 56 °C.

The compound `Cc1cccc(C(=O)NC(C)C(=O)O)c1` (stereo unspecified) registered a melting point of 117 to 119 °C.

Regarding `O=C(O)c1ccnc2ncnn12`, the melting point was 259 to 261 °C.

Turning to `Nc1cc(Cl)cc2[nH]cnc12`, the melting point was 89 to 91 °C.

The compound `COC(=O)c1c[nH]c(C)n1` gave a melting point of 136 to 138 °C.

`CN(C)C(=O)CN1C(=O)C(=O)c2cc(Br)ccc21`: the melting point lay within 194 to 196 °C.

`COC(=O)C(=O)CC(=O)c1ccccc1Br` yielded a melting point of 61 to 63 °C.

Compound `NS(=O)(=O)c1ccc(F)c(C(=O)O)c1` showed a melting point of 186 to 188 °C.

In turn, `NC(=O)c1ccc(N=C=S)cc1` yielded a melting point of 189 to 191 °C.

With `Cc1nc(N)n(-c2ccc(C#N)cc2)n1`, the melting point is 270 to 272 °C.

The compound `Cc1ccoc1-c1nnc(N)s1` registered a melting point of 153 to 155 °C.

Consider `N#Cc1c2c(n(-c3ccccc3)c1NC(=O)CCl)CCCC2`, for which the melting point lay within 156 to 158 °C.

On to `COc1ccccc1C(C#N)NC(=O)OC(C)(C)C` (stereo unspecified), for which the melting point lay within 79 to 81 °C.

As for `Clc1ccc2c(Cl)ncnc2c1`, the melting point was 136 to 138 °C.

In the case of `Nc1cc(F)c(I)c(F)c1`, the melting point lay in the range of 113 to 115 °C.

The compound `CC(C)c1nc(S(=O)(=O)Cl)c[nH]1` yielded a melting point of 162 to 164 °C.

Take `CCCC1CCc2[nH]c(=O)c(C#N)cc2C1` (stereo unspecified): the melting point is 233 to 235 °C.

As to `O=C1CCN(C2CC2)CCN1`, the melting point fell in the range of 98 to 100 °C.

`O=C(NCC1CCCC1)n1ccnc1` registered a melting point of 61 to 63 °C.

Regarding `O=C(O)c1ccc(Nc2ccc(F)c(F)c2)c([N+](=O)[O-])c1`, the melting point lay within 237 to 239 °C.

Consider `Oc1cccc2c1NCCC2`, for which the melting point is 116 to 118 °C.

The compound `Cn1cc(CC(=O)O)c2ccccc21` gave a melting point of 126 to 128 °C.

The compound `N#Cc1ccc(Cl)cc1S(=O)(=O)Cl` showed a melting point of 79 to 81 °C.

On to `COC(=O)c1c(C)[nH]c(C(=O)O)c1C`, for which the melting point lay within 206 to 208 °C.

The compound `O=c1cc(CCl)nc2sccn12` registered a melting point of 180 to 182 °C.

With `Nc1ccn(Cc2ccncc2)n1`, the melting point is 122 to 124 °C.

Compound `O=S1(=O)CCC(Cc2nnc(S)o2)C1` (stereo unspecified) showed a melting point of 160 to 162 °C.

`Cn1cc(Br)nn1`: the melting point was 99 to 101 °C.

Compound `O=C(O)C1(O)CCCCC1` gave a melting point of 102 to 104 °C.

`Cc1c(C(=O)O)oc2c(Cl)cccc12` gave a melting point of 229 to 231 °C.

`CC(C)n1c(S)nc2ccccc21` displayed a melting point of 138 to 140 °C.

`CCCC(NC(=O)Cc1ccccc1)C(=O)O` (stereo unspecified) registered a melting point of 133 to 135 °C.

In turn, `CN1Cc2ccc(N)cc2C1` gave a melting point of 61 to 63 °C.

`Cc1cc(Br)cc(C=O)c1O` showed a melting point of 68 to 70 °C.

In turn, `O=C(O)C1CCN(S(=O)(=O)c2ccccc2C(F)(F)F)CC1` had a melting point of 127 to 129 °C.

In turn, `O=C(O)CNC(=O)c1ccccc1I` displayed a melting point of 174 to 176 °C.

In turn, `O=C1CCSc2c(Cl)cccc21` registered a melting point of 91 to 93 °C.

`Cc1cc(C)n2ncc(C(=O)O)c2n1` displayed a melting point of 176 to 178 °C.

Consider `O=C(O)C1CC(=O)N(c2cccc3ccccc23)C1` (stereo unspecified), for which the melting point fell in the range of 207 to 209 °C.

As for `CCn1ccc(=O)nc1S`, the melting point was 242 to 244 °C.

In the case of `CC(=O)c1cncc(F)c1`, the melting point is 48 to 50 °C.

`O=C(O)c1cccn(Cc2ccccc2)c1=O` had a melting point of 129 to 131 °C.

The compound `Cc1c(C(=O)O)nnn1-c1cccc2ncccc12` returned a melting point of 209 to 211 °C.

The compound `O=C(O)c1ccnc(Cl)c1F` registered a melting point of 194 to 196 °C.

For the compound `O=C(O)c1cc(Cl)c[nH]1`, the melting point lay within 182 to 184 °C.

Turning to `COc1ncnc(N)c1C=O`, the melting point lay within 197 to 199 °C.

For `O=C1NC(=O)N(C2CC2)C1=O`, the melting point was in the range of 115 to 117 °C.

With `Cc1nccc(CN)n1`, the melting point is 8 to 10 °C.

Regarding `CC1Nc2ccccc2NC1=O` (stereo unspecified), the melting point was 130 to 132 °C.

For the compound `CCN(CC)S(=O)(=O)c1ccc2nc(O)cc(C(=O)O)c2c1`, the melting point fell in the range of 310 to 312 °C.

`CC(=O)c1nc(-c2ccccc2)cs1` registered a melting point of 77 to 79 °C.

As to `Cc1ccc2nc(S)n(C)c(=O)c2c1`, the melting point lay in the range of 275 to 277 °C.

`NNC(=O)Cc1ccncc1`: the melting point is 91 to 93 °C.

`O=C(O)c1cc(Cl)ccc1-n1cnnn1`: the melting point lay in the range of 198 to 200 °C.

Turning to `O=C(O)C1CCc2c(Cl)cccc21` (stereo unspecified), the melting point was 111 to 113 °C.

Compound `O=C(O)Cc1ccc(OCCOc2ccccc2)cc1` returned a melting point of 169 to 171 °C.

Take `O=S(=O)(Cl)c1ccc2c(c1)Cc1ccccc1-2`: the melting point was 157 to 159 °C.

Compound `NC(=NO)c1ccc(N2CCCCC2)cc1` displayed a melting point of 169 to 171 °C.

Regarding `Nc1ccc(I)cc1O`, the melting point fell in the range of 104 to 106 °C.

With `NS(=O)(=O)c1ccc(F)c2ncccc12`, the melting point lay within 256 to 258 °C.

`CC(NC(=O)c1ccc(Br)cc1)C(=O)O` (stereo unspecified) registered a melting point of 138 to 140 °C.

In turn, `CS(=O)(=O)NC1(C(=O)O)CCCCC1` returned a melting point of 114 to 116 °C.

On to `O=c1n(CCCO)nc2ccccn12`, for which the melting point was 81 to 83 °C.

`NNc1cc(Cl)ncn1` displayed a melting point of 151 to 153 °C.

For the origin of these results see a melting point compilation (Tetko et al.).
